Source: US5464835A, “Use for bis-heterocyclic compounds and pharmaceutical compositions containing same” (Harbor Branch Oceanographic Institution, Inc., priority 1994, dated 1995)
pIC50: −log10 of the molar value.

Tests used:
[1] = target: bee venom phospholipase A2 (Apis mellifera, UniProt P00630); assay: biochemical; format: biochemical; conditions: for inhibition at 1 µM: final concentration 1 μM; for inhibition at 1 µM / inhibition at 1.6 µM: read-out: % Inactivation of bee venom phospholipase A2; for inhibition at 1.6 µM: final concentration 1.6 μM
[2] = tested on: PMA-induced mouse ear edema; assay: Mouse ear anti-inflammatory assay (topical inhibition of PMA-induced edema); conditions: for percent inhibition of mouse ear edema (dose-response): FIG. 3; for % Inhibition of edema / ED50, topical inhibition of PMA-induced mouse ear edema: topical; for % Inhibition of edema: Table 3; for inhibition of PMA-induced edema / anti-inflammatory activity (in words): result in words; for ED50, topical inhibition of PMA-induced mouse ear edema: simultaneous with PMA, 3 h 20 min, Table 2; for percent inhibition of edema (dose-response): FIG. 2
Protocol: A. Mouse ear anti-inflammatory assay. The test compound and a known inflammatory agent, phorbol myristate acetate (PMA), are topically applied simultaneously to the left ears of mice. Three hours and 20 minutes following application, the mice are sacrificed. Both left and right ears are removed and standard-sized bores taken. Edema (inflammation) is measured as the difference in weight between left and right ears (Van Arman, C. G. [1974] Clin. Pharmacol. Ther. 16:900-904).

Candida albicans = assay: Antifungal activity against Candida albicans (MIC, RPMI-1640 growth medium); format: cell-based

Chain of bee venom phospholipase A2 (P00630 34-167 limits assumed): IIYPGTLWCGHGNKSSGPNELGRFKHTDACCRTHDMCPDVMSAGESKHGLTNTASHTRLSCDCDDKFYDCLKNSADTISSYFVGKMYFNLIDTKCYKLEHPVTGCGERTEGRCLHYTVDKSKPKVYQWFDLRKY

SMILES	inhibition at 1 µM ([1]; 1 h) [%]	% Inhibition of edema ([2]; dose 50 μg/ear) [%]	inhibition of PMA-induced edema / anti-inflammatory activity (in words) [2]	pIC50 [1]	ED50, topical inhibition of PMA-induced mouse ear edema [2] [μg/ear]	also measured
O=C(c1nc(-c2c[nH]c3cc(Br)ccc23)c[nH]1)c1c[nH]c2cc(O)ccc12 [Bromotopsentin]	33	75.4	significant potency	–	–	percent inhibition of mouse ear edema (dose-response) ([2]; 50 μg/ear): about 75%; percent inhibition of mouse ear edema (dose-response) ([2]; approximately 25 μg/ear): about 20%
CN1CC(c2c[nH]c3c(Br)c(Br)cc(O)c23)NCC1c1c[nH]c2cc(Br)ccc12 (stereo not shown) [Dragmacidin]	27	64.0	significant potency	–	–	–
O=C1NC(c2c[nH]c3cc(Br)ccc23)CN=C1c1c[nH]c2cc(Br)ccc12 (stereo not shown) [Hamacanthin A]	–	–	–	–	–	inhibition at 1.6 µM ([1]; 1 h): 37%; antifungal activity (in words) (Candida albicans): active components; % Inhibition of edema ([2]; dose 50 μM (so in the source)): 50.0%
O=C1NCC(c2c[nH]c3cc(Br)ccc23)N=C1c1c[nH]c2cc(Br)ccc12 (stereo not shown) [Hamacanthin B]	–	–	–	–	–	inhibition at 1.6 µM ([1]; 1 h): 32%; antifungal activity (in words) (Candida albicans): active components; % Inhibition of edema ([2]; dose 50 μM (so in the source)): 34.0%
C[C@]12CCC(=O)C=C1CC[C@@H]1[C@@H]2[C@@H](O)C[C@@]2(C)[C@H]1CC[C@]2(O)C(=O)CO [Hydrocortisone, reference compound]	–	–	–	< 3.00	20	inactivation of bee venom phospholipase A2 (in words) [1]: inactive
COc1ccc2c(c1)c(CC(=O)O)c(C)n2C(=O)c1ccc(Cl)cc1 [Indomethacin, reference compound]	–	–	–	< 3.00	250	inactivation of bee venom phospholipase A2 (in words) [1]: inactive
CC1=C(CC/C(C)=C/CCC2=CC[C@H](C3=CC(=O)O[C@H]3O)O[C@H]2O)C(C)(C)CCC1 [Manoalide, reference compound]	–	–	–	7.30	100	–
Brc1ccc2c(-c3c[nH]c(-c4c[nH]c5cc(Br)ccc45)n3)c[nH]c2c1 [Nortopsentin A]	30	98.1	significant potency	–	–	–
Brc1ccc2c(-c3nc(-c4c[nH]c5ccccc45)c[nH]3)c[nH]c2c1 [Nortopsentin B, nortopsentin B]	27	38.2	–	–	–	–
Brc1ccc2c(-c3c[nH]c(-c4c[nH]c5ccccc45)n3)c[nH]c2c1 [Nortopsentin C, nortopsentin C]	26	70.1	significant potency	–	–	–
CC(=O)Oc1ccc2c(C(=O)c3ncc(-c4c[nH]c5ccccc45)n3C(C)=O)c[nH]c2c1 [Topsentin diacetate, topsentin diacetate]	32	42.6	moderate activity	–	–	–
CC(=O)Oc1ccc2c(C(=O)c3ncc(-c4c[nH]c5ccccc45)[nH]3)c[nH]c2c1 [Topsentin monoacetate]	42	45.8	moderate activity	–	–	–
O=C(c1nc(-c2c[nH]c3ccccc23)c[nH]1)c1c[nH]c2cc(O)ccc12 [Topsentin]	67	70.6	significant potency	6.30	15	inactivation of bee venom phospholipase A2 (in words) [1]: capable of the inactivation of bee venom phospholipase A2; inhibition at 2 µM ([1]; 1 h, read-out: percent inactivation of bee venom phospholipase A2 (dose-response)): ≤ 80%; percent inhibition of edema (dose-response) ([2]; 100 μg/ear): more than 90%; percent inhibition of edema (dose-response) ([2]; about 12 μg/ear): ~50%; inhibition of PMA-induced edema / anti-inflammatory activity (in words) ([2]; listed as topsentin): greater potency than to the known anti-inflammatories hydrocortisone, indomethacin, and manoalide
